For series [1] the following is noted: cited from earlier work.
The next series relates to WT-MDCKII cells. Put plainly: GCS inhibition (GlcCer production) in whole wild-type MDCKII cells. In kind it is cell-based, canine. The conditions noted are these: Canis lupus familiaris, MDCK-II; inhibition of GlcCer production in whole wild-type MDCKII cells, 24 h; read-out: WT-MDCK IC50. The procedure: Parental (WT-)MDCKII cells and MDCKII cells retrovirally transduced with human MDR-1 cDNA were obtained from the Netherlands Cancer Institute. Both cell lines were routinely maintained in medium consisting of Opti-MEM/F 12 (1:1), 5% FBS, 100 U/mL of penicillin, 100 μg/mL streptomycin and […] L-glutamine. MDCKII cells were newly thawed from frozen ampules every two months. Protein levels of MDR1 in MDR1-MDCKII cells were measured monthly, and MDR1-MDCKII cell passages were immediately terminated when a reduction of MDR1 levels was observed by Western blot using anti-human MDR1 monoclonal antibody (Abcam C219).
(§1) Stock solutions of water-insoluble glycosphingolipid inhibitors (100 mM) were prepared by dissolving each inhibitor into 100% ethanol as previously described (3). The inhibitor-ethanol solutions then were diluted 50× into 2 mM delipidated bovine serum albumin-phosphate buffered saline solution to make water-soluble glycosphingolipid inhibitor-bovine serum albumin complexes. The inhibitor-bovine serum album complexes were sterile-filtered and stored at −20° C. Prior to use, portions of the inhibitor-bovine serum albumin complexes were further diluted with Opti-F12 to make treatment solutions. Equal amounts of bovine serum albumin and ethanol were added into the control cultures. WT and MDR1-MDCKII cells (5×10^5) were seeded into 10-cm culture dishes containing 10 ml of Opti-F12 with 5% FBS. After 24 hours, the medium was replaced with fresh serum-free Opti-F12 medium, and cells were exposed to candidate GCS inhibitors at concentrations of 0, 1, 3, 10, 30, 100 and 300 nM for 24 hours.
(§2) Following inhibitor treatment, whole cellular lipids of wild type and MDR1-MDCKII cells were extracted as previously described in detail (10). Briefly, cells were washed with ice-cold phosphate buffered saline, fixed by methanol, and collected with rubber scraper. Chloroform was then added to yield a theoretical ratio of chloroform:methanol:water at 1:2:0.8 (v/v/v) to form a mono-phase. Cell debris and proteins were removed by centrifugation at 2200×g for 30 min. The supernatants were portioned by adding chloroform and 0.9% NaCl. The lower organic phases containing neutral glycosphingolipids lipids were washed with methanol and 0.9% NaCl, and subjected to base- and acid-hydrolysis (10). A portion of purified glycosphingolipids normalized to 100 nmol of total phospholipids was analyzed by high performance thin layer chromatography. The thin layer chromatography separations were processed twice. The plate pretreated with 1% sodium borate was first developed in a solvent system consisting of chloroform/methanol (98/2, v/v). After air drying, the plate was then developed in a solvent system containing chloroform/methanol/water (70/30/4, v/v/v). The levels of glucosylceramide were detected by charring with 8% cupric sulfate in 8% phosphoric acid, and quantified by densitometric scanning using ImageJ, NIH Image. Image data was analyzed, and the IC50 of each inhibitor was calculated using GraphPad Prism (version 5.03).

The test system of another series is MDR1-MDCKII cells. Put plainly: GCS inhibition (GlcCer production) in MDCKII cells stably expressing human MDR1. In kind it is cell-based, canine. The conditions noted are these: for IC50: Canis lupus familiaris, inhibition of GlcCer production in MDCKII cells stably expressing human MDR1, 24 h, read-out: MDR-MDCK IC50; for MDR/WT: ratio of MDR1-MDCKII IC50 divided by WT-MDCKII IC50. The method, then:
Parental (WT-)MDCKII cells and MDCKII cells retrovirally transduced with human MDR-1 cDNA were obtained from the Netherlands Cancer Institute. Both cell lines were routinely maintained in medium consisting of Opti-MEM/F 12 (1:1), 5% FBS, 100 U/mL of penicillin, 100 μg/mL streptomycin and […] L-glutamine. MDCKII cells were newly thawed from frozen ampules every two months.
as §1, with “After 24 hours, the medium was replaced with fresh serum-free Opti-F12 medium, and cells were exposed to candidate GCS inhibitors at concentrations of 0, 1, 3, 10, 30, 100 and 300 nM for 24 hours.” left out
as §2, with “Image.” for “Image. Image data was analyzed, and the IC50 of each inhibitor was calculated using GraphPad Prism (version 5.03).”

The target of series [2] is T1, glucosylceramide synthase (GCS) (Canis lupus familiaris, UniProt A0A8I3MXG6).
T1 construct: Madin-Darby canine kidney (MDCK) cell homogenates (120 μg of protein) were incubated; endogenous in cells; host or cells: MDCK (Madin-Darby canine kidney) cell homogenate
T1 sequence (A0A8I3MXG6 1-394): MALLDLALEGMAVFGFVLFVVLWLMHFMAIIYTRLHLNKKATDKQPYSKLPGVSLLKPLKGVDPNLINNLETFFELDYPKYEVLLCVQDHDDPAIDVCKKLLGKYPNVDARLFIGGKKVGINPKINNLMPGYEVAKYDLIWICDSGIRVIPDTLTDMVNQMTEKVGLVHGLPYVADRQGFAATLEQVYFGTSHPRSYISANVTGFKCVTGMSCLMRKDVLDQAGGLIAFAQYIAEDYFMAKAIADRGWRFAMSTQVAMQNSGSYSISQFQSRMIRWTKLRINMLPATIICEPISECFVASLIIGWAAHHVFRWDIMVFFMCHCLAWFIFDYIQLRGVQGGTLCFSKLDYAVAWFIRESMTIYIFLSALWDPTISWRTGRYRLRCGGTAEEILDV
Description: GCS activity, broken cell (MDCK cell homogenate) assay. In kind it is biochemical, canine. The method, then: Enzyme activity was measured as described previously (9). Madin-Darby canine kidney (MDCK) cell homogenates (120 μg of protein) were incubated with uridine diphosphate-[^3H]glucose (100,000 cpm) and liposomes consisting of 85 μg of octanoylsphingosine, 570 μg of dioleoylphosphatidylcholine, and 100 μg of sodium sulfatide in a 200 μL reaction mixture and kept for 1 h at 37° C.

For a further series, the target named is T2, MDR1 (Homo sapiens, UniProt P08183).
T2 construct: host or cells: MDCKII (canine kidney) cells retrovirally transduced with human MDR-1 cDNA
Description: [3H]Vinblastine transport in MDR1-MDCKII cells. In kind it is cell-based. The conditions noted are these: 1-100 μM, 2 h, relative to vehicle. The method, then:
MDR1- and WT-MDCKII cells were grown to confluence on Transwell filters (12 well plates) in DMEM+10% FBS. […] Uptake was measured over 2 hours at 37° C. At that time, uptake was stopped by washing each side of the membrane 3× with ice-cold PBS. Vinblastine uptake into the cells, after correction for any remaining adherent extracellular contamination, was calculated as described previously (11). To investigate the effect of experimental drugs on MDR-mediated transport, those compounds were added to the apical chamber (1-100 μM) during vinblastine uptake and the uptake results expressed as a % of that with vehicle alone.

A value given as a limit tells only on which side of the number the result lay.

T2 sequence (P08183 whole entry): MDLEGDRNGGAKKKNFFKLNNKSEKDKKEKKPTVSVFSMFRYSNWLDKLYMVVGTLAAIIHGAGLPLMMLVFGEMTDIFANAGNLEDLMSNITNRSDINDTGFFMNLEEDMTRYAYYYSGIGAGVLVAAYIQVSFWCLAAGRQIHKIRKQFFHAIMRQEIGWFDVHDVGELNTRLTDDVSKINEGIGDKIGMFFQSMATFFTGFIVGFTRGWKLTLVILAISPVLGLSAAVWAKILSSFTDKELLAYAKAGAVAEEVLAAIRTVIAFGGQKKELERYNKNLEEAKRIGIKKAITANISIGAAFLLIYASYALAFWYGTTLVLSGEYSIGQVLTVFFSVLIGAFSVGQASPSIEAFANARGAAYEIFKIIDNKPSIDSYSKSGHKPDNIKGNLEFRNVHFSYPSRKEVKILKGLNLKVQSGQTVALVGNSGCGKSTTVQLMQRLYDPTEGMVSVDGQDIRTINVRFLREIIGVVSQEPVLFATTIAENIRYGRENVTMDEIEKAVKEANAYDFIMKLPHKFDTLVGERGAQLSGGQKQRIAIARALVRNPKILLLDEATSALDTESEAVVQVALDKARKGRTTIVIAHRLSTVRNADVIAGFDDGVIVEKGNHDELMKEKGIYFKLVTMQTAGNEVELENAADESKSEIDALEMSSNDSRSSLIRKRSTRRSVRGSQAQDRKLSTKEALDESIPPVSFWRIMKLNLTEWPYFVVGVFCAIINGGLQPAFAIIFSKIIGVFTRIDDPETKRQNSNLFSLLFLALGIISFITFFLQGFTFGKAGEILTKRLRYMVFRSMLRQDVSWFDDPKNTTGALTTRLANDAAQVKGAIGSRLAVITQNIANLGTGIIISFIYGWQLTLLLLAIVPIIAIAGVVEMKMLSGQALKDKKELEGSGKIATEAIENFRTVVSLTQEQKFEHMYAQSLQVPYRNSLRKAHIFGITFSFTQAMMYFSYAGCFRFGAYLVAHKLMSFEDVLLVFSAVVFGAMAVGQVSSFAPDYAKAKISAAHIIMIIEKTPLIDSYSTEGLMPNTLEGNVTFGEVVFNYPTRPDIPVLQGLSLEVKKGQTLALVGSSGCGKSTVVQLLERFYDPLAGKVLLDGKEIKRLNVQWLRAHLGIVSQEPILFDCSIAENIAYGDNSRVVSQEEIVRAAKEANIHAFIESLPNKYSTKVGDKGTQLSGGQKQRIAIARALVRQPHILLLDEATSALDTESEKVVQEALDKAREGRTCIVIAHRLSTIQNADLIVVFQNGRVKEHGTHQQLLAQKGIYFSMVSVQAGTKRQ

Take `CCCCN1C[C@H](O)[C@@H](O)[C@H](O)[C@H]1CO` [NB-DNJ, N-butyldeoxynojirimycin]: the “effect on mouse body weight” value in series [1] is “reduce mouse body weight”.

On to `O=C(/C=C/c1ccccc1)N[C@H](CN1CCCC1)[C@H](O)c1ccc2c(c1)OCCO2` [Compound 3f, N-((1R,2R)-1-(2,3-dihydrobenzo[b][1,4]dioxin-6-yl)-1-hydroxy-3-(pyrrolidin-1-yl)propan-2-yl)cinnamamide], for which the IC50 stood at 0.0807 µM in the series with WT-MDCKII cells, 0.389 µM in the series on MDR1-MDCKII cells and 0.379 µM in series [2]. Also, in the series on MDR1-MDCKII cells, the MDR/WT amounted to 4.8.

On to `O=C(CCc1ccccc1)N[C@H](CN1CCCC1)[C@H](O)c1ccc2c(c1)OCCO2` [Compound 3c], for which the IC50 was found to be 0.0235 µM with WT-MDCKII cells, 0.0867 µM in the series on MDR1-MDCKII cells and 0.134 µM in series [2]. The MDR/WT with MDR1-MDCKII cells turned out to be 3.7.

On to `CN(C(=O)CCc1ccccc1)[C@H](CN1CCCC1)[C@H](O)c1ccc2c(c1)OCCO2` [Compound 3j, N-((1R,2R)-1-(2,3-dihydrobenzo[b][1,4]dioxin-6-yl)-1-hydroxy-3-(pyrrolidin-1-yl)propan-2-yl)-N-methyl-3-phenylpropanamide], for which the IC50 was found to be 0.0594 µM in the series with WT-MDCKII cells, 1.25 µM in the series with MDR1-MDCKII cells and 0.158 µM in series [2]. Besides, the MDR/WT in the series on MDR1-MDCKII cells amounted to 21.

Consider `O=C(CCCc1ccccc1)N[C@H](CN1CCCC1)[C@H](O)c1ccc2c(c1)OCCO2` [Compound 3e], for which the values for the IC50 (in the series with WT-MDCKII cells; in the series on MDR1-MDCKII cells; in series [2]) were 0.254 µM, 1.44 µM and 0.08 µM, respectively. Also, the MDR/WT with MDR1-MDCKII cells is 5.7.

On to `O=C(N[C@H](CN1CCCC1)[C@H](O)c1ccc2c(c1)OCCO2)OCc1ccccc1` [Compound 3b], for which the IC50 with WT-MDCKII cells stood at 0.0073 µM; with MDR1-MDCKII cells, 0.0471 µM; in series [2], 0.144 µM. The MDR/WT in the series with MDR1-MDCKII cells amounted to 6.5.

Regarding `O=C(N[C@H](CN1CCCC1)[C@H](O)c1ccc2c(c1)OCCO2)C1CC1c1ccccc1` (stereo partly drawn) [Compound 3g, N-((1R,2R)-1-(2,3-dihydrobenzo[b][1,4]dioxin-6-yl)-1-hydroxy-3-(pyrrolidin-1-yl)propan-2-yl)-2-phenylcyclopropanecarboxamide], the IC50 is 0.0273 µM with WT-MDCKII cells, 0.0781 µM in the series on MDR1-MDCKII cells and 0.09 µM in series [2]. The MDR/WT in the series on MDR1-MDCKII cells worked out at 2.9.

In the case of `O=C(N[C@H](CN1CCCC1)[C@H](O)c1ccc2c(c1)OCCO2)C1Cc2ccccc2C1` [Compound 3i, N-((1R,2R)-1-(2,3-dihydrobenzo[b][1,4]dioxin-6-yl)-1-hydroxy-3-(pyrrolidin-1-yl)propan-2-yl)-2,3-dihydro-1H-indene-2-carboxamide], the IC50 in the series on WT-MDCKII cells worked out at 0.151 µM; in the series with MDR1-MDCKII cells, 3.21 µM; in series [2], 0.107 µM. Besides, the “activity in the MDR1-MDCKII line” value with MDR1-MDCKII cells (in words) is given as “loss of activity”. For the same compound, the MDR/WT in the series on MDR1-MDCKII cells is reported as 21. Also, at MDR1, the “[3H]vinblastine uptake into MDR1-MDCKII cells” value was “dose dependent increase”.

Regarding `O=C(Cc1ccccc1)N[C@H](CN1CCCC1)[C@H](O)c1ccc2c(c1)OCCO2` [Compound 3d, N-((1R,2R)-1-(2,3-dihydrobenzo[b][1,4]dioxin-6-yl)-1-hydroxy-3-(pyrrolidin-1-yl)propan-2-yl)-2-phenylacetamido], in series [2], the IC50 was > 2 µM.
